# Patent US20160095861A1, “OPHTHALMIC OINTMENTS COMPRISING VALGANCICLOVIR HYDROCHLORIDE FOR TREATING INFECTIVE EYE DISEASES” (SKIRON BIOSCIENCES, priority 2014, published 2016)
# Structures can show the parent of a compound that is named as a salt.
# Columns and labels:
# [1] = tested on: CMV-induced inflammation in the eye; assay: Valganciclovir hydrochloride ophthalmic ointments tested in a patient with CMV-induced inflammation in the eye (Example 4); format: in vivo, human; conditions: topical ophthalmic ointment, 1% w/w and 5% w/w, one patient
# Experimental: The 1% w/w and 5% w/w valganciclovir hydrochloride ophthalmic ointments were tested in a patient with CMV-induced inflammation in the eye.
# [2] = tested on: hypertensive anterior uveitis associated with clinical signs of cytomegalovirus (CMV) iritis; assay: Case report: topical valganciclovir for hypertensive anterior uveitis with clinical signs of CMV iritis (Example 5); format: in vivo, human
# Experimental: Valganciclovir was extracted from the tablet form (450 mg, Valcyte, Roche). Briefly, tablets were dissolved in 0.001N HCl (2 ml per tablet), the insoluble excipients were isolated by centrifugation at 16,000 g, the solution was then filtered through 0.2 μm filter into ice-cold isopropanol (20 ml per tablet) leading to precipitation of the valganciclovir. The precipitate was spun down at 3,000 g, isopropanol was decanted and remaining volatile solvents were removed in the lyophilizer. The identity of valganciclovir was confirmed by liquid chromatography-mass spectrometry (LC-MS). 1% (w/w) valganciclovir ointment in the oleaginous base (20% mineral oil and 80% white petrolatum) was made by following standard compounding practices.
# The patient was referred to us […] with chronic low-grade iritis and IOPs that were not adequately managed with medications (prednisolone acetate, brimonidine, and dorzolamide/timolol). Based on the history, pattern of keratic precipitates, mild anterior chamber inflammation, iris atrophy and elevated IOP (25 mmHg in the right eye and 16 mmHg in the left eye) CMV iritis was suspected. […]. PCR of the aqueous was negative for CMV, herpes simplex virus (HSV), and varicella-zoster virus (VZV) DNA.^6 However, because we had previously observed false negative PCR results in a substantial proportion of eyes suspected to have CMV iritis on clinical grounds, we decided to start a course of oral valganciclovir (900 mg twice daily). Within six weeks their IOP returned to normal levels and after 3 months all keratic precipitates completely resolved.
# Nine months after the start of valganciclovir therapy, valganciclovir was discontinued and twice daily ganciclovir gel, 0.15%, was started. […] The patient refused to restart oral valganciclovir due to concerns about the toxicity of systemic valganciclovir, and continued with ganciclovir gel, topical corticosteroids, and topical anti-hypertensives.
# At this same time, the patient began treating their condition with self-compounded topical valganciclovir. They initially wore a contact lens soaked overnight in 5% valganciclovir and later formulated 5% valganciclovir eye drops, which they administered 2-4 times per day. With this approach the patient's ocular inflammation and IOP improved and surgery was postponed, but the patient still required topical corticosteroids and topical anti-hypertensive medications. After 3 years of controlled inflammation on valganciclovir eye drops, the patient became concerned about medication stability and began formulating 1% valganciclovir ointment in an oleaginous base (80% white petrolatum and 20% mineral oil). […] With long-term use of topical valganciclovir ointment, the patient was able to taper off topical corticosteroids and topical anti-hypertensives and has remained stable since then (9 months).
smiles,measurement,setting,value
"CC(C)[C@H](N)C(=O)OCC(CO)OCn1cnc2c(=O)nc(N)[nH]c21 (stereo partly drawn) [valganciclovir, valganciclovir hydrochloride]",control of the inflammation and lowering of the intraocular pressure,[1],effectiveness
same,ocular inflammation and intraocular pressure,[2]; oral valganciclovir together with topical corticosteroids,ocular inflammation resolved and intraocular pressure normalized
same,disease status after dose reduction,"[2]; oral, 450 mg twice daily",the disease remained quiet
same,leukopenia (complete blood counts tested periodically),"[2]; oral, 900 mg twice daily",no leukopenia developed
same,time until IOP returned to normal levels,"[2]; oral, 900 mg twice daily",six
same,time until all keratic precipitates completely resolved,"[2]; oral, 900 mg twice daily",3 months
